Results on 18 compounds are retold here after article PMC10603954, “Bacterial Tyrosinase Inhibition, Hemolytic and Thrombolytic Screening, and In Silico Modeling of Rationally Designed Tosyl Piperazine-Engrafted Dithiocarbamate Derivatives” (Biomedicines, 2023).

Where two headings read alike, the source gives them in different places.

The test system of data set [1] is clot. Kind of data set: Thrombolytic activity (clot lysis). Details: species or system albino mice. As to conditions: 100 µL sample in DMSO, 37 °C, 3 h.
Excerpt: Blood samples were collected from albino mice and relocated to numerous cleaned and weighed-up eppendorf tubes. […] Blood serum was cast-off from these tubes and weighed in the eppendorf tubes to calculate the preliminary weight of the clot (clot weight = weight of the eppendorf with the clot minus the weight of the empty eppendorf). […] In this methodology, ABTS was used as a positive control, while water was used as a negative control. Serum was again removed and weighed in the eppendorf tubes to measure clot lysis.
The target of data set [2] is bacterial tyrosinase (Bacillus subtilis NA2). Details: method as in PMID 36142889. As to conditions: reference standard; read-out: IC50 (µM) Tyrosinase Inhibition; cited from earlier work.
The target of data set [3] is Tyrosinase. The settings on record: Figure 3; no reference given; read-out: Tyrosinase inhibtors IC50; cited from earlier work.
Data set [4] concerns the target bacterial tyrosinase (Bacillus subtilis NA2). Kind of data set: Tyrosinase inhibition, spectrophotometric L-Dopa assay. The data set is classed as biochemical. As to conditions: for IC50: bacterial tyrosinase, L-Dopa substrate, PBS pH 6.8; for optical density at varied incubation times: incubation 10, 20 and 30 min (Figure 6).
Description: IC50 values were obtained using a spectrophotometer assay. The protocol involved the addition of 2 mL of 1/2 mM L-Dopa in a 67.0 mM PBS (phosphate buffer saline) solution of pH 6.8 to the 800 µL solution of target molecules in DMSO. A total of 0.1 mL of the enzyme solution (tyrosinase) was dissolved in this mixture, and the starting rate of linear increase was measured in the optical density after 10, 20, and 30 min of incubation time, respectively. Thus, optical density increases or decreases with the presence of dopachrome.
The inhibition potential of these derivatives was also studied at varied incubation times.
A short description of data set [5]: Hemolytic activity. The format is cell-based, albino mice. The settings on record: albino, mouse, red blood cells (RBC pellet from blood), pH 7.4; 20 µL sample (10 mg/mL) with 180 µL RBC, 37 °C, half an hour.
Description: A blood sample of 5 mL of volume from albino mice was taken and subjected to centrifugation at 1000 rpm for 5 min. RBC pellets were secluded and splashed 3–4 times using chilled buffer solutions that had pH values of 7.4, such as the phosphate buffer saline (PBS). A solution sample in a volume of 20 µL (10 mg/mL) was taken and added to a 180 µL RBC pellet. […] A sample tube was taken from the incubator and lowered to room temperature in an ice bath for 5 min. The sample was again centrifuged at 13,000 rpm for 5 min. A total of 100 µL of supernatant was collected from each tube and diluted with the ice-cold phosphate buffered saline.

In the case of `CCn1c(=NN=c2sc3cc(S(=O)(=O)O)ccc3n2CC)sc2cc(S(=O)(=O)O)ccc21` [ABTS, 2,2′-azino-bis(3-ethylbenzothiazoline-6-sulfonic acid), reference compound], in data set [1], the “% Thrombolysis” value is reported as 80%.

The term IC50 denotes the midpoint of a concentration-inhibition curve. As for `O=C1O[C@H]([C@@H](O)CO)C(O)=C1O` [Ascorbic Acid], in data set [2], the IC50 was 11.5 ± 1 µM.

`O=C(c1ccccc1)N1CCN(Cc2ccc(F)cc2)CC1` [Compound 2d]: the IC50 in data set [3] was 13.3 µM.

Take `O=C(c1cccc(Cl)c1[N+](=O)[O-])N1CCN(Cc2ccc(F)cc2)CC1` [Compound 2e]: the IC50 in data set [3] was 0.18 µM.

With `O=S(=O)(c1ccc(CN2CCN(c3ccccc3)CC2)cc1)N1CCCCC1` [Compound 2f], in data set [3], the half-inhibitory concentration (IC50) is 0.06 µM.

Consider `Cc1ccc(NC(=O)CCCN2CCN(C/C=C/c3ccccc3)CC2)c(C)c1` [Compound 2g], for which the IC50 in data set [3] is 0.01 µM.

Turning to `COc1cccc(/C=C/C(=O)N2CCN(c3ccc(F)c(Cl)c3)CC2)c1Cl` [Compound 2h], the IC50 in data set [3] is 0.12 µM.

In the case of `Cc1ccc(S(=O)(=O)N2CCN(C(=S)SCC(=O)Nc3ccccc3)CC2)cc1` [Compound 4a, 2-Oxo-2-(phenylamino)ethyl 4-tosylpiperazine-1-carbodithioate], in data set [4], the IC50 turned out to be 34.8 ± 0.99 µM and the “optical density at varied incubation times” value (“optical density” for short) is recorded as “linear decrease in optical density”. Moreover, in data set [5], the hemolysis at 0.5 h, 1 mg/mL was 0.55 ± 0.03%. For the same compound, the “% Thrombolysis” value in data set [1] was 62.3 ± 0.41%.

Usually melting point stands for the temperature, or range, at which the solid turns liquid. On to `Cc1ccc(S(=O)(=O)N2CCN(C(=S)SCC(=O)Nc3ccccc3Cl)CC2)cc1` [Compound 4b, 2-((2-Chlorophenyl)amino)-2-oxoethyl 4-tosylpiperazine-1-carbodithioate], for which the melting point was 180 °C. In data set [4], the IC50 turned out to be 8.01 ± 0.11 µM and the “optical density” value is on record as “highest optical density”. Moreover, the hemolysis at 0.5 h, 1 mg/mL in data set [5] came out at 0.29 ± 0.01%. In addition, the “% Thrombolysis” value in data set [1] was determined as 54.43 ± 0.23%.

In data set [4], `Cc1ccc(S(=O)(=O)N2CCN(C(=S)SCC(=O)Nc3ccccc3F)CC2)cc1` [Compound 4c, 2-((2-Fluorophenyl)amino)-2-oxoethyl 4-tosylpiperazine-1-carbodithioate] had an IC50 of 8.1 ± 0.3 µM. In data set [5], the hemolysis at 0.5 h, 1 mg/mL was 6.6 ± 0.37%. Besides, the “% Thrombolysis” value in data set [1] stood at 56.76 ± 0.15%.

Regarding `COc1ccc(NC(=O)CSC(=S)N2CCN(S(=O)(=O)c3ccc(C)cc3)CC2)cc1` [Compound 4d, 2-((4-Methoxyphenyl)amino)-2-oxoethyl 4-tosylpiperazine-1-carbodithioate], the melting point was 175 °C. Also, half-maximal inhibition in data set [4] (IC50) was put at 6.88 ± 0.11 µM. Moreover, in data set [5], the hemolysis at 0.5 h, 1 mg/mL worked out at 15.6 ± 0.5%. The “% Thrombolysis” value in data set [1] was determined as 52.4 ± 0.2%.

As for `Cc1ccc(S(=O)(=O)N2CCN(C(=S)SCC(=O)Nc3ccc(Cl)cc3)CC2)cc1` [Compound 4e, 2-((4-Chlorophenyl)amino)-2-oxoethyl 4-tosylpiperazine-1-carbodithioate], the IC50 in data set [4] is 11.1 ± 0.4 µM. This compound gave a hemolysis at 0.5 h, 1 mg/mL in data set [5] of 7.5 ± 0.4%. Further, the “% Thrombolysis” value in data set [1] is 67.3 ± 0.2%.

In data set [4], `Cc1ccc(S(=O)(=O)N2CCN(C(=S)SCC(=O)Nc3ccc(F)cc3)CC2)cc1` [Compound 4f, 2-((4-Fluorophenyl)amino)-2-oxoethyl 4-tosylpiperazine-1-carbodithioate] displayed an IC50 of 10.3 ± 0.26 µM. Moreover, the hemolysis at 0.5 h, 1 mg/mL in data set [5] was 4.53 ± 0.35%. Further, the “% Thrombolysis” value in data set [1] came to 56.53 ± 0.55%.

The compound `Cc1ccc(S(=O)(=O)N2CCN(C(=S)SCC(=O)Nc3ccc(C)cc3C)CC2)cc1` [Compound 4g, 2-((2,4-Dimethylphenyl)amino)-2-oxoethyl 4-tosylpiperazine-1-carbodithioate] gave a melting point of 185 °C. In data set [4], the IC50 was 7.24 ± 0.15 µM and the “optical density” value is “linear decrease in optical density”. Besides, the hemolysis at 0.5 h, 1 mg/mL in data set [5] stood at 1.53 ± 0.35%. In addition, the “% Thrombolysis” value in data set [1] stood at 55.26 ± 0.15%.

The compound `COc1ccc(OC)c(NC(=O)CSC(=S)N2CCN(S(=O)(=O)c3ccc(C)cc3)CC2)c1` [Compound 4h, 2-((2,5-Dimethoxyphenyl)amino)-2-oxoethyl 4-tosylpiperazine-1-carbodithioate] had a melting point of 190 °C. Also, in data set [4], the IC50 worked out at 13.25 ± 0.11 µM and the “optical density” value is recorded as “linear decrease in optical density”. In data set [5], this compound had a hemolysis at 0.5 h, 1 mg/mL of 11.3 ± 0.22%. In data set [1], the “% Thrombolysis” value came out at 60.83 ± 0.14%.

Regarding `Cc1ccc(S(=O)(=O)N2CCN(C(=S)SCC(=O)Nc3ccc(Cl)c(Cl)c3)CC2)cc1` [Compound 4i, 2-((3,4-Dichlorophenyl)amino)-2-oxoethyl 4-tosylpiperazine-1-carbodithioate], in data set [4], the IC50 is 19.2 ± 0.47 µM and the “optical density” value is on record as “linear decrease in optical density”. Further, in data set [5], the hemolysis at 0.5 h, 1 mg/mL turned out to be 12.8 ± 0.35%. The “% Thrombolysis” value in data set [1] is recorded as 54.38 ± 0.53%.

Consider `Cc1ccc(S(=O)(=O)N2CCN(C(=S)SCC(=O)Nc3ccc(C)c(C)c3)CC2)cc1` [Compound 4j, 2-((3,4-Dimethylphenyl)amino)-2-oxoethyl 4-tosylpiperazine-1-carbodithioate], for which, in data set [4], the IC50 is 11.11 ± 0.1 µM and the “optical density” value is “linear decrease in optical density”. In data set [5], this compound registered a hemolysis at 0.5 h, 1 mg/mL of 2.56 ± 0.3%. The “% Thrombolysis” value in data set [1] is given as 56.6 ± 0.23%.

In the case of `O=c1cc(CO)occ1O` [Kojic Acid, Kojic acid, reference compound], in data set [4], the IC50 is 30.3 ± 0.75 µM.
